Among the data in US8633206B2, “Pyrrolo[2,3-D]pyrimidine compounds” (Pfizer Inc., priority 2009, dated 2014) are IC50 values, retold here.

Holding throughout (assay type): biochemical
One experiment concerns the target JAK1 (Homo sapiens (Human), UniProt P23458). In words: JAK enzymatic assay (peptide mobility shift), JAK1. Particulars: recombinant JAK1 20 nM, IRS-1 peptide, 240 minutes.
The target of the next experiment is JAK3 (Homo sapiens (Human), UniProt P52333). In words: JAK enzymatic assay (peptide mobility shift), JAK3. Particulars: recombinant JAK3 1 nM, JAKtide peptide, 90 minutes.
Another experiment addresses JAK2 (Homo sapiens (Human), UniProt O60674). Description: JAK enzymatic assay (peptide mobility shift), JAK2. Particulars: recombinant JAK2 2 nM, JAKtide peptide, 150 minutes.

Sequence of JAK2 (O60674 808-1132): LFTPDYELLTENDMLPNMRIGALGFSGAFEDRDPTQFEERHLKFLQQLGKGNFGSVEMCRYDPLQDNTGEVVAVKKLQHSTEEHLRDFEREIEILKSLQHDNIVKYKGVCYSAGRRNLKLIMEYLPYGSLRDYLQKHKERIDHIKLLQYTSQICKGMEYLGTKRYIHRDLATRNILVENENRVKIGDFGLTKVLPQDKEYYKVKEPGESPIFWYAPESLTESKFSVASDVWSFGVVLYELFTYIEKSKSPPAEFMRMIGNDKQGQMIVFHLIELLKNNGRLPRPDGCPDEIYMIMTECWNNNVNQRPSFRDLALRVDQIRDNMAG
Sequence of JAK1 (P23458 whole entry): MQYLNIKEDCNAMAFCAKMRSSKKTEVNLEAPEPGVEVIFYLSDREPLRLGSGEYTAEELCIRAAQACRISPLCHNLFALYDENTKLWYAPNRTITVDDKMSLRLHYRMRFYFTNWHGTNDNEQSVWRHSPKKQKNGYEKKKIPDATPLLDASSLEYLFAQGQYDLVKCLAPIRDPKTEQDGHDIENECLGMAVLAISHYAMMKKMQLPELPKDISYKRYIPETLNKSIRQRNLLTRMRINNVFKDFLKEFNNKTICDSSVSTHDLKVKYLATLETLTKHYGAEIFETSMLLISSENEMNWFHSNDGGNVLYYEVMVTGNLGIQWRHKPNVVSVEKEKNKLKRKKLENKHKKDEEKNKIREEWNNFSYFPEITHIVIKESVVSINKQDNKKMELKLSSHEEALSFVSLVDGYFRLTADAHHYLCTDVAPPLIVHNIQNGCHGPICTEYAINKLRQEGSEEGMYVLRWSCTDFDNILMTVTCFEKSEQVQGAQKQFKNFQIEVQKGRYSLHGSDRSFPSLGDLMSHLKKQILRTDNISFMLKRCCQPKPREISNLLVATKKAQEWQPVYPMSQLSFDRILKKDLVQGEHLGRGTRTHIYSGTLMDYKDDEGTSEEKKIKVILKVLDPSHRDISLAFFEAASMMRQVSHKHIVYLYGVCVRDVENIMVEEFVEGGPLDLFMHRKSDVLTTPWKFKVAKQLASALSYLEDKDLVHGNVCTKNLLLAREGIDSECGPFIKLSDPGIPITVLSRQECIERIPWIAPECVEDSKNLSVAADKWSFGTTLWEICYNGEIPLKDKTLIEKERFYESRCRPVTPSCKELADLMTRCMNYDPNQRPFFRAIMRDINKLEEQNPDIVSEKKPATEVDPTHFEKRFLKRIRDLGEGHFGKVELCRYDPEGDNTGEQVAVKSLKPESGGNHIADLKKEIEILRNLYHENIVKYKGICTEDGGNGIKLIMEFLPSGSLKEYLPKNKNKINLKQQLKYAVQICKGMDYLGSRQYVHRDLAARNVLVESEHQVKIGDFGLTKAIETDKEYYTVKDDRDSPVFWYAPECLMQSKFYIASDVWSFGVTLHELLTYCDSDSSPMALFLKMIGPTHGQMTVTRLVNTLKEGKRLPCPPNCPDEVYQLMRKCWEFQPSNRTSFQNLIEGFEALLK
Sequence of JAK3 (P52333 781-1124): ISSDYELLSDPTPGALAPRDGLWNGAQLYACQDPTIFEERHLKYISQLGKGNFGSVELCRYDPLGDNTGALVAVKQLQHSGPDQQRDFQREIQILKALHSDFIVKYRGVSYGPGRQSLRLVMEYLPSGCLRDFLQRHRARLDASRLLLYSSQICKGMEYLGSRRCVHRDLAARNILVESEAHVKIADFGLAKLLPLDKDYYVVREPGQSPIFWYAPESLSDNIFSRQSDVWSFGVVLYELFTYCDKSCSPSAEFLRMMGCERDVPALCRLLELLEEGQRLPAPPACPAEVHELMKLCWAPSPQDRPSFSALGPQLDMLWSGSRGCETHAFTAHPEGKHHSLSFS

Broadly, the IC50 is the point on the concentration scale where inhibition reaches its midpoint. With `CN(c1ncnc2[nH]ccc12)[C@H]1CC[C@H](CS(=O)(=O)N2CC[C@@](O)(Cn3cccn3)C2)CC1` [Example 90, 1-[({trans-4-[methyl(7H-pyrrolo[2,3-d]pyrimidin-4-yl)amino]cyclohexyl}methyl)-sulfonyl]-3-(1H-pyrazol-1-ylmethyl)pyrrolidin-3-ol], the IC50 on JAK1 was found to be 1.8 nM; on JAK3 it was 82.3 nM; on JAK2, 9.3 nM.

Take `CCN(CC)C(=O)CO[C@@H]1CCN(S(=O)(=O)C[C@H]2CC[C@H](N(C)c3ncnc4[nH]ccc34)CC2)C1` [Example 101, N,N-diethyl-2-({(3R)-1-[({trans-4-[methyl(7H-pyrrolo[2,3-d]pyrimidin-4-yl)amino]cyclohexyl}-methyl)sulfonyl]pyrrolidin-3-yl}oxy)acetamide]: the IC50 at JAK1 came to 4.86 nM; at JAK3, 584 nM; on JAK2, 35.9 nM.

Regarding `CN(c1ncnc2[nH]ccc12)[C@H]1CC[C@H](CS(=O)(=O)N2CC[C@H](CO)C2)CC1` [Example 31, {(3S)-1-[({trans-4-[methyl(7H-pyrrolo[2,3-d]pyrimidin-4-yl)amino]-cyclohexyl}methyl)sulfonyl]-pyrrolidin-3-yl}-methanol], the IC50 on JAK1 was 2.88 nM; at JAK3 it was 200 nM; on JAK2, 14.4 nM.

For `CN(c1ncnc2[nH]ccc12)[C@H]1CC[C@H](CS(=O)(=O)N2C[C@@H](O)[C@H](O)C2)CC1` [Example 72, (3R,4R)-1-[({trans-4-[methyl(7H-pyrrolo[2,3-d]-pyrimidin-4-yl)amino]-cyclohexyl}methyl)sulfonyl] pyrrolidine-3,4-diol], the values for the IC50 on JAK1, on JAK3 and at JAK2 were 5.92 nM, 173 nM and 39.6 nM, respectively.

As for `CN(c1ncnc2[nH]ccc12)[C@H]1CC[C@H](CS(=O)(=O)N2CCSC2)CC1` [Example 124, N-methyl-N-{trans-4-[(1,3-thiazolidin-3-ylsulfonyl)-methyl]cyclohexyl}-7H-pyrrolo[2,3-d]pyrimidin-4-amine], the IC50 worked out at 8.8 nM at JAK1, 122 nM on JAK3 and 29.5 nM at JAK2.

Regarding `CN(c1ncnc2[nH]ccc12)[C@H]1CC[C@H](CS(=O)(=O)N2CC(S(=O)(=O)c3ccccc3)C2)CC1` [Example 114, N-methyl-N-[trans-4-({[3-(phenylsulfonyl)azetidin-l-yl]sulfonyl}methyl)cyclo-hexyl]-7H-pyrrolo[2,3-d]-pyrimidin-4-amine], the IC50 was 3.05 nM at JAK1, 63 nM at JAK3 and 9.2 nM at JAK2.

For `CN(c1ncnc2[nH]ccc12)[C@H]1CC[C@H](CS(=O)(=O)N2CC[C@H](S(=O)(=O)CCc3ccccc3)C2)CC1` [Example 83, N-methyl-N-{trans-4-[({3-[(2-phenylethyl)-sulfonyl]pyrrolidin-1-yl}sulfonyl)methyl]cyclo-hexyl}-7H-pyrrolo[2,3-d]pyrimidin-4-amine], the IC50 at JAK1 was determined as 4.79 nM; at JAK3 it was 133 nM; at JAK2, 16.7 nM.
